In US10640534B2 (Agios Pharmaceuticals, Inc., priority 2012, dated 2020) one finds IC50 data, which are given here for 24 compounds.

For orientation: IC50 means the concentration at which inhibition is half-maximal. Low readings indicate greater potency in that assay, high ones weaker potency in that assay.

This experiment has as its system U87MG cells. Kind of experiment: Cellular assay, inhibition of 2-HG production in U87MG cells. Type of experiment: cell-based. As to conditions: Homo sapiens, U-87 MG, 48 h. Summed up: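 HT1080 or U87MG cells (U87MG kept with 500 ug/mL G418) seeded at 5000 cells/well and treated with compound at 0.2% final DMSO. Incubated 48 h at 37 °C. 2-HG inhibition determined by LC-MS. Viability read by CellTiter-Glo luminescence at 72 h post-dose.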

In turn, `N#Cc1ccnc(N2C(=O)[C@@H](O)C[C@H]2C(=O)N(c2cc(F)cc(F)c2)[C@H](C(=O)NC2CC(F)(F)C2)c2ccccc2Cl)c1` [Compound 171, (2S,4S)—N—((S)-1-(2-Chlorophenyl)-2-((3,3-difluorocyclobutyl)amino)-2-oxoethyl)-1-(4-cyano-pyridin-2-yl)-N-(3,5-difluorophenyl)-4-hydroxy-5-oxopyrrolidine-2-carboxamide] yielded an IC50 of less than 0.1 µM.
Regarding `N#Cc1ccnc(N2C(=O)CC[C@H]2C(=O)N(c2cncc(F)c2)[C@H](C(=O)NC2CCC(F)(F)CC2)c2ccccc2Cl)c1` [Compound 193, (S)—N—((S)-1-(2-Chlorophenyl)-2-(4,4-difluorocyclohexylamino)-2-oxoethyl)-1-(4-cyanopyridin-2-yl)-N-(5-fluoropyridin-3-yl)-5-oxopyrrolidine-2-carboxamide], the IC50 is less than 0.1 µM.
Take `N#Cc1ccnc(N2C(=O)CC[C@H]2C(=O)N(c2cccc(F)c2)[C@H](C(=O)NC2CCC(F)(F)CC2)c2ccccc2Cl)c1` [Compound 53]: the IC50 is less than 0.1 µM.
Under `N#Cc1ccnc(N2C(=O)OCC[C@H]2C(=O)N(c2cc(F)cc(F)c2)[C@H](C(=O)NC2CCC(F)(F)CC2)c2ccccc2Cl)n1` [Compound 144, (S)—N—((S)-1-(2-Chlorophenyl)-2-((4,4-difluorocyclohexyl)amino)-2-oxoethyl)-3-(4-cyanopyrimidin-2-yl)-N-(3,5-difluorophenyl)-2-oxo-1,3-oxazinane-4-carboxamide] stands less than 0.1 µM; under `N#Cc1ccnc(N2C(=O)CC[C@H]2C(=O)N(c2cccc(F)c2)[C@H](C(=O)NC2CC(F)(F)C2)c2ccccc2Cl)n1` [Compound 68, (S)—N—((S)-1-(2-Chlorophenyl)-2-((3,3-difluorocyclobutyl)amino)-2-oxoethyl)-1-(4-cyanopyrimidin-2-yl)-N-(3-fluorophenyl)-5-oxopyrrolidine-2-carboxamide], less than 0.1 µM; under `O=C(NC1CCC(F)(F)CC1)[C@H](c1ccccc1Cl)N(C(=O)[C@@H]1CCC(=O)N1c1ncccn1)c1cccc(F)c1` [Compound 4, (S)—N—((S)-1-(2-chlorophenyl)-2-((4,4-difluorocyclohexyl)amino)-2-oxoethyl)-N-(3-fluorophenyl)-5-oxo-1-(pyrimidin-2-yl)pyrrolidine-2-carboxamide], less than 0.1 µM.
Regarding `N#Cc1ccnc(N2C(=O)[C@H](O)C[C@H]2C(=O)N(c2cc(F)cc(F)c2)[C@@H](C(=O)NC2CC(F)(F)C2)c2ccccc2Cl)c1` [Compound 114, (2S,4R)—N—((R)-1-(2-Chlorophenyl)-2-((3,3-difluorocyclobutyl)amino)-2-oxoethyl)-1-(4-cyanopyridin-2-yl)-N-(3,5-difluorophenyl)-4-hydroxy-5-oxopyrrolidine-2-carboxamide], the IC50 is less than 0.1 µM.
As for `Cc1ccc(N2C(=O)CC[C@H]2C(=O)N(c2cccc(F)c2)[C@H](C(=O)NC2CC(F)(F)C2)c2ccccc2Cl)nc1` [Compound 21], the figure is 0.1 to 0.5 µM.
Under `CC(=O)N1CC(=O)N(c2cc(C#N)ccn2)[C@H](C(=O)N(c2cccc(F)c2)[C@H](C(=O)NC2CC(F)(F)C2)c2ccccc2Cl)C1` [Compound 92, (S)-4-Acetyl-N—((S)-1-(2-chlorophenyl)-2-(3,3-difluorocyclobutylamino)-2-oxoethyl)-1-(4-cyanopyridin-2-yl)-N-(3-fluorophenyl)-6-oxopiperazine-2-carboxamide] stands less than 0.1 µM; under `N#Cc1ccnc(N2C(=O)[C@H](O)C[C@H]2C(=O)N(c2cccc(F)c2)[C@H](C(=O)NC2CCC(F)(F)CC2)c2ccccc2Cl)n1` [Compound 123, (2S,4R)—N—((S)-1-(2-Chlorophenyl)-2-((4,4-difluorocyclohexyl)amino)-2-oxoethyl)-1-(4-cyanopyrimidin-2-yl)-N-(3-fluorophenyl)-4-hydroxy-5-oxopyrrolidine-2-carboxamide], less than 0.1 µM; under `N#Cc1ccnc(N2C(=O)CC[C@H]2C(=O)N(c2cc(F)cc(C3CC3)c2)[C@H](C(=O)NC2CC(F)(F)C2)c2ccccc2Cl)c1` [Compound 204, (S)—N—((S)-1-(2-Chlorophenyl)-2-((3,3-difluorocyclobutyl)amino)-2-oxoethyl)-1-(4-cyanopyridin-2-yl)-N-(3-cyclopropyl-5-fluorophenyl)-5-oxopyrrolidine-2-carboxamide], less than 0.1 µM.
Turning to `N#Cc1ccnc(N2C(=O)[C@H](O)C[C@H]2C(=O)N(c2cc(F)cc(F)c2)[C@H](C(=O)NC2CCC(F)(F)CC2)c2ccccc2Cl)n1` [Compound 127, (2S,4R)—N—((S)-1-(2-Chlorophenyl)-2-(4,4-difluorocyclohexylamino)-2-oxoethyl)-1-(4-cyanopyrimidin-2-yl)-N-(3,5-difluorophenyl)-4-hydroxy-5-oxopyrrolidine-2-carboxamide], the IC50 was less than 0.1 µM.
Under `N#Cc1ccnc(N2C(=O)[C@H](O)C[C@H]2C(=O)N(c2cc(F)cc(F)c2)[C@H](C(=O)NC2CCC(F)(F)CC2)c2ccccc2Cl)c1` [Compound 125, (2S,4R)—N—((S)-1-(2-Chlorophenyl)-2-(4,4-difluorocyclohexylamino)-2-oxoethyl)-1-(4-cyanopyridin-2-yl)-N-(3,5-difluorophenyl)-4-hydroxy-5-oxopyrrolidine-2-carboxamide] stands less than 0.1 µM.
`CS(=O)(=O)Nc1cccc(N(C(=O)[C@@H]2CCC(=O)N2c2cc(C#N)ccn2)[C@H](C(=O)NC2CC(F)(F)C2)c2ccccc2Cl)c1` [Compound 159, (S)—N—((S)-1-(2-Chlorophenyl)-2-(3,3-difluorocyclobutylamino)-2-oxoethyl)-1-(4-cyanopyridin-2-yl)-N-(3-(methylsulfonamido)phenyl)-5-oxopyrrolidine-2-carboxamide] gave an IC50 of less than 0.1 µM.
`N#Cc1ccnc(N2C(=O)CC[C@H]2C(=O)N(c2cc(F)cc(F)c2)[C@H](C(=O)NC2CC(F)(F)C2)c2ccccc2Cl)c1F` [Compound 88, (S)—N—((S)-1-(2-Chlorophenyl)-2-((3,3-difluorocyclobutyl)amino)-2-oxoethyl)-1-(4-cyano-3-fluoropyridin-2-yl)-N-(3,5-difluorophenyl)-5-oxopyrrolidine-2-carboxamide]: the IC50 is less than 0.1 µM.
In the case of `CC(C)(C)OC(=O)N1CC(=O)N(c2cc(C#N)ccn2)[C@H](C(=O)N(c2cccc(F)c2)[C@H](C(=O)NC2CC(F)(F)C2)c2ccccc2Cl)C1` [Compound 89, (3S)-tert-Butyl 3-((1-(2-chlorophenyl)-2-((3,3-difluorocyclobutyl)amino)-2-oxoethyl)(3-fluorophenyl)carbamoyl)-4-(4-cyanopyridin-2-yl)-5-oxopiperazine-1-carboxylate], the IC50 was less than 0.1 µM.
As for `CN1C[C@@H](C(=O)N(c2cccc(F)c2)C(C(=O)NC2CC(F)(F)C2)c2ccccc2Cl)N(c2cc(C#N)ccn2)C1=O` (stereo partly drawn) [Compound 79, (4S)—N-(1-(2-chlorophenyl)-2-((3,3-difluorocyclobutyl)amino)-2-oxoethyl)-3-(4-cyanopyridin-2-yl)-N-(3-fluorophenyl)-1-methyl-2-oxoimidazolidine-4-carboxamide], the figure is less than 0.1 µM.
As for `CN1CC(=O)N(c2cc(C#N)ccn2)[C@H](C(=O)N(c2cc(F)cc(F)c2)[C@H](C(=O)NC2CC(F)(F)C2)c2ccccc2Cl)C1` [Compound 101, (S)—N—((S)-1-(2-chlorophenyl)-2-((3,3-difluorocyclobutyl)amino)-2-oxoethyl)-1-(4-cyanopyridin-2-yl)-N-(3,5-difluorophenyl)-4-methyl-6-oxopiperazine-2-carboxamide], the figure is less than 0.1 µM; as for `N#Cc1ccnc(N2C(=O)[C@H](O)C[C@H]2C(=O)N(c2cccc(F)c2)[C@H](C(=O)NC2CC(F)(F)C2)c2ccccc2Cl)c1` [Compound 113, (2S,4R)—N—((S)-1-(2-Chlorophenyl)-2-(3,3-difluorocyclobutylamino)-2-oxoethyl)-1-(4-cyanopyridin-2-yl)-N-(3-fluorophenyl)-4-hydroxy-5-oxopyrrolidine-2-carboxamide], less than 0.1 µM; as for `N#Cc1ccnc(N2C(=O)[C@H](O)C[C@H]2C(=O)N(c2cc(F)cc(F)c2)[C@@H](C(=O)NC2CCC(F)(F)CC2)c2ccccc2Cl)n1` [Compound 126, (2S,4R)—N—((R)-1-(2-Chlorophenyl)-2-(4,4-difluorocyclohexylamino)-2-oxoethyl)-1-(4-cyanopyrimidin-2-yl)-N-(3,5-difluorophenyl)-4-hydroxy-5-oxopyrrolidine-2-carboxamide], 0.1 to 0.5 µM.
Under `N#Cc1cc(F)cc(N(C(=O)[C@@H]2CCC(=O)N2c2cc(C#N)ccn2)[C@H](C(=O)NC2CCC(F)(F)CC2)c2ccccc2Cl)c1` [Compound 184, (S)—N—((S)-1-(2-Chlorophenyl)-2-(4,4-difluorocyclohexylamino)-2-oxoethyl)-N-(3-cyano-5-fluorophenyl)-1-(4-cyanopyridin-2-yl)-5-oxopyrrolidine-2-carboxamide] stands less than 0.1 µM; under `N#Cc1ccnc(N2C(=O)[C@H](O)C[C@H]2C(=O)N(c2cc(F)cc(F)c2)[C@@H](C(=O)NC2CCC(F)(F)CC2)c2ccccc2Cl)c1` [Compound 124, (2S,4R)—N—((R)-1-(2-Chlorophenyl)-2-(4,4-difluorocyclohexylamino)-2-oxoethyl)-1-(4-cyanopyridin-2-yl)-N-(3,5-difluorophenyl)-4-hydroxy-5-oxopyrrolidine-2-carboxamide], less than 0.1 µM.
Regarding `N#Cc1cc(C#N)cc(N(C(=O)[C@@H]2CCC(=O)N2c2cc(C#N)ccn2)C(C(=O)NC2CC(F)(F)C2)c2ccccc2Cl)c1` (stereo partly drawn) [Compound 191, (2S)—N-(1-(2-Chlorophenyl)-2-((3,3-difluorocyclobutyl)amino)-2-oxoethyl)-1-(4-cyanopyridin-2-yl)-N-(3,5-dicyanophenyl)-5-oxopyrrolidine-2-carboxamide], the IC50 is less than 0.1 µM.
Under `N#Cc1ccnc(N2C(=O)CC[C@H]2C(=O)N(c2cccc(OC(F)F)c2)[C@H](C(=O)NC2CC(F)(F)C2)c2ccccc2Cl)n1` [Compound 194, (S)—N—((S)-1-(2-Chlorophenyl)-2-((3,3-difluorocyclobutyl)amino)-2-oxoethyl)-1-(4-cyanopyrimidin-2-yl)-N-(3-(difluoromethoxy)phenyl)-5-oxopyrrolidine-2-carboxamide] stands less than 0.1 µM.
